In US11255806B2, “Interdigitated electrodes for in vitro analysis of cells” (UNIVERSITY OF CENTRAL FLORIDA RESEARCH FOUNDATION, INC., priority 2017, dated 2022):
Several values for one entry are separate records, joined by “and”; a condition that tells them apart may be missing. Equal values may be shown once.

Tested on: iPSC cardiomyocytes (iCell Cardiomyocytes^2)
Experiment: Model drug (norepinephrine) cardiotoxicity experiment: impedance / cell index on nIDEs with cultured iPSC cardiomyocytes
Type: cell-based, Human

SMILES: NC[C@H](O)c1ccc(O)c(O)c1 [norepinephrine]
- change of CI and % CI with norepinephrine concentration (0 μM to 250 μM, N=6, FIG. 24): both decrease as the concentration of norepinephrine increases
- percent cell index (% CI) (at 256 μm norepinephrine, mean of N=7, 86.91% at 0 μM, FIG. 24): 48.88%
- cell index (CI) (at 256 μm norepinephrine, mean of N=7, CI=2.34 at 0 μM, FIG. 23): 1.13
- cellular index (CI) after increased concentrations of norepinephrine (summary statement, concentration not given, decrease from 2.34 / 2.3): 1.13 and 1
